The values below come from patent publication US20130310374A1, “Substituted Imidazoquinoline Derivatives” (PIRAMAL ENTERPRISES LIMITED`, priority 2010, published 2013).

Assay [1] addresses T1, PI3Kα (Homo sapiens, UniProt P42336).
T1 construct: purchased Upstate Millipore
Nature of the assay: p110α radioactive lipid kinase assay (PI3Kα). To be noted: 25 μM ATP. Type of assay: biochemical. How it is done:
Protocol for Kinase Assay (PI3Kα)
p110α Radioactive Lipid Kinase Assay
The assay was designed as in the reference, Journal of Biomolecular Screening, 2002, Vol. 7, No. 5, 441-450, the disclosure of which is incorporated herein by reference for the teaching of the assay.
The p110α biochemical assay was performed using a radioactive assay measuring the incorporation of ^32P into the p110α substrate, phosphatidylinsoitol (PI). For the generation of IC50 curves, the reaction was performed in a 96-well MaxiSorp plates. Plates were pre-coated with 4 μg/well of a 1:1 ratio of phosphatidylinositol (PI: Avanti #840042C) and phosphatidylserine (PS: Avanti #840032C) diluted in CHCl3. Equal amount of p110α (Upstate Millipore) protein was added to each well, containing 25 μL reaction buffer (50 mM MOPSO pH7.0, 100 mM NaCl, 4 mM MgCl2, 0.1% (w/v) BSA) whereas, for negative control, only reaction buffer was added. Compounds of the present invention dissolved in DMSO were treated at nine-point dose responses (0.3, 1, 3, 6, 10, 30, 60, 100 and 300 nM). Reactions were initiated by the addition of 25 μM ATP solution (Sigma, USA) containing 50 μCi/mL [γ-^32P]-ATP and incubated at RT for 2 hours with gentle shaking. […] The radioactivity incorporated into the immobilized PI substrate was determined with Top Count (Perkin Elmer). Inhibition was calculated using the following equation: […]

The subject of assay [2] is human PC3 xenograft tumors. Nature of the assay: Prostate cancer xenograft model (tumor growth inhibition in vivo). The conditions noted are these: SCID mice, 3 mpk p.o. (Example 3a once daily and BID; Example 19 once daily), 15 days; FIG. 3A. Further details: species or system mouse. How it is done:
Animals: Severe combined immunodeficient (SCID) mice (Male and Female) 6 to 8 weeks old, were used. Animals were housed in suitable cages under specified pathogen-free conditions in rooms maintained at 23° C. and 50% humidity, with a 12-hour light/12-hour dark cycle. The mice were quarantined during the acclimatization period of at least a week.
Prostate cancer xenograft model: PC3 (human prostate cancer) cell line (ATCC) was maintained in RPMI 1640 (Gibco BRL, Pasley, UK) supplemented with 10% (v/v) FBS. The cells were incubated at 37° C. in a humidified atmosphere containing 5% CO2. Cells were passaged using trypsin/EDTA for cell detachment once every 3 days. On the day of tumor cell injection, cells were detached from the flasks with trypsin/EDTA, washed once in medium and re-suspended in serum free RPMI 1640 at 5 million cells/0.2 mL volume, and placed on ice. […]
Procedure: Tumor-bearing mice were randomized (n=7 per group) in four groups when the mean tumor volume was ˜100 mm^3. […] Twice a week, each xenograft was measured in two dimensions (a=length; b=width) with a caliper. Tumor volume (V) was determined by the following equation: V=ab^2/2
Tumor volumes were converted into tumor weights assuming a tumor density of 1 mm^3=1 mg. Tumor growth inhibition (TGI) for each group was calculated according to the following formula: […]

The target of assay [3] is T2, mTOR (Homo sapiens, UniProt P42345).
T2 construct: ProQinase, Germany (contract testing)
Nature of the assay: mTOR inhibition assay (ProQinase). In kind it is biochemical. The conditions noted are these: tested at ProQinase, Germany; read-out: IC50, mTOR enzyme activity. How it is done: The compounds of the present invention were tested at ProQinase, Germany.

SMILES strings stand for the structures.

T1 sequence (P42336 whole entry, species assumed): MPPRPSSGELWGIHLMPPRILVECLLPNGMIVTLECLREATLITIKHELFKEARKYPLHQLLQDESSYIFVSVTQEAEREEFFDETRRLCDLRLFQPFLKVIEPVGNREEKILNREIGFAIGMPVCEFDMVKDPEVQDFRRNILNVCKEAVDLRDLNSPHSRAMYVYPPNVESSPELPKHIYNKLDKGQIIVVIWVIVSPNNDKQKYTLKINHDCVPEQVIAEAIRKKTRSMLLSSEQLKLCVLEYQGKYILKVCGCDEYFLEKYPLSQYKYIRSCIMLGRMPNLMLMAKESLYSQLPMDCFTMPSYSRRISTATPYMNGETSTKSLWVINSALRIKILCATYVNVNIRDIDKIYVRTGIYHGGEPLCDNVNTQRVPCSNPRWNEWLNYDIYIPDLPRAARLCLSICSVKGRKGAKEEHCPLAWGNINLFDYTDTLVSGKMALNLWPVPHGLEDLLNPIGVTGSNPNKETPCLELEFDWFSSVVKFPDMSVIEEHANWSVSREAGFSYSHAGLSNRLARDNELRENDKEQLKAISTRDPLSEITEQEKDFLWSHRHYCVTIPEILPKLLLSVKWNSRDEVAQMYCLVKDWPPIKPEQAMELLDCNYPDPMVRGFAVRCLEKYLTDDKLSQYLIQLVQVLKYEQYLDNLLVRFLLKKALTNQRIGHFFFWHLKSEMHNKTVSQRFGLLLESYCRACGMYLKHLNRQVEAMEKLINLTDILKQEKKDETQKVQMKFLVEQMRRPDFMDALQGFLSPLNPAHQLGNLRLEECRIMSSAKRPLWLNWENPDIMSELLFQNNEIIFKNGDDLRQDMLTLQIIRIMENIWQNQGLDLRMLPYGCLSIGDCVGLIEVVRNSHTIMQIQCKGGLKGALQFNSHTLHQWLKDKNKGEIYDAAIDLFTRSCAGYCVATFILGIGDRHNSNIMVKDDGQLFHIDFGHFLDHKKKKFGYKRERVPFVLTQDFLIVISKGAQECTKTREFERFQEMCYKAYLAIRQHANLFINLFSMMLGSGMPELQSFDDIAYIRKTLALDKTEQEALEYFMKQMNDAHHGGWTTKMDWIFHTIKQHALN
T1 sequence (P27986 whole entry partner, species assumed): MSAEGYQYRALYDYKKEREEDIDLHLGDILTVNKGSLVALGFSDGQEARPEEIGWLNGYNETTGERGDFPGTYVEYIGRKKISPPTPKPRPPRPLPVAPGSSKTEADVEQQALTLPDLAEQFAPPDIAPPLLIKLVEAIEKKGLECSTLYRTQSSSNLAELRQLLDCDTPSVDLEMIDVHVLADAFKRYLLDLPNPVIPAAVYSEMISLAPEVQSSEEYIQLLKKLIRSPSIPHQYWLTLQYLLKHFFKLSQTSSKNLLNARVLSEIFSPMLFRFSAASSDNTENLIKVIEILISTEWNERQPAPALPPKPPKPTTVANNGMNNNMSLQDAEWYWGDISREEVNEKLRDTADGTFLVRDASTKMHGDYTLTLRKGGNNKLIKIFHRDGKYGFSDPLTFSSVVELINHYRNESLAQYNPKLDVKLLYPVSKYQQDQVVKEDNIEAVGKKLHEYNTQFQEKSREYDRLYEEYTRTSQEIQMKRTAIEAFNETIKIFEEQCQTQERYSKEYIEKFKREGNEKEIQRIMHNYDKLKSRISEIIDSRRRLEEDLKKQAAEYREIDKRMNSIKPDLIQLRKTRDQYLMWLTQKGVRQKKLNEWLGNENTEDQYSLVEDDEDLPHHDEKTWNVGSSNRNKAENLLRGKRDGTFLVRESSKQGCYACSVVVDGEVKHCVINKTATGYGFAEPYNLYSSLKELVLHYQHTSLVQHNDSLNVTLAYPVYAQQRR

Consider `COc1ccc(-n2c(=O)n(C)c3cnc4ccc(-c5cnc(N)c(C(F)(F)F)c5)cc4c32)cn1` [Example 19, 8-(6-Amino-5-(trifluoromethyl)pyridin-3-yl)-1-(6-methoxypyridin-3-yl)-3-methyl-1H-imidazo[4,5-c]quinolin-2(3H)-one], for which the IC50 in assay [1] came out at 2.89 nM. For the same compound, the “Tumor growth in-vivo, PC3 xenograft” value in assay [2] is on record as “effectively inhibit tumor growth in-vivo”.

As for `CS(=O)(=O)O.Cn1c(=O)n(-c2ccc(C(C)(C)C#N)nc2)c2c3cc(-c4cnc(N)c(C(F)(F)F)c4)ccc3ncc21` [Example 3a, 8-(6-Amino-5-(trifluoromethyl)pyridin-3-yl)-1-(6-(2-cyanopropan-2-yl)pyridin-3-yl)-3-methyl-2-oxo-2,3-dihydro-1H-imidazo[4,5-c]quinolin-5-ium methanesulfonate], the results for the IC50 in assay [1] and in assay [3] were 1.37 nM and 4.4 nM, respectively. Moreover, the “Tumor growth in-vivo, PC3 xenograft” value in assay [2] was “effectively inhibit tumor growth in-vivo”.

Usually IC50 stands for the concentration at which inhibition is half-maximal.
